Measured values from PubChem BioAssay AID1996.
≈ marks a conversion by molar mass, not a printed value.

Conditions: buffer; pH 7.4; 200.0 µM

First: CC(=O)Nc1ccc(N=Cc2c(O)c3ccccc3oc2=O)cc1
Second: Cc1ccc(Nc2nc(C)nc3c2oc2ccccc23)cc1
The solubility kinetic of the first is 13-fold higher: 3.8 µg/mL (≈ 11.8 µM) for the first, 0.3 µg/mL (≈ 1.04 µM) for the second.

Compared with `CCOc1ccc(NC(=S)N(C)C)cc1`, `CCOc1ncccc1C(=O)Nc1ccc2c(c1)OCO2` is lower in solubility kinetic: greater than 33.6 µg/mL for the first, 2.7 µg/mL (≈ 9.43 µM) for the second.

Compared with `Cc1ccccc1NC(=O)OCc1ccccc1`, `O=C(O)CN(CCc1ccccc1)S(=O)(=O)c1ccccc1` is higher in solubility kinetic: 23.7 µg/mL (≈ 98.2 µM) for the first, greater than 47.9 µg/mL for the second.

Compared with `O=C(O)CC1(CC(=O)NCc2csc(-c3cccs3)n2)CCCCC1`, `CC1=C(C(=O)OCC2CCCCC2)C(c2ccccc2F)NC(=O)N1` (stereo not given) is 75-fold lower in solubility kinetic: 44.9 µg/mL (≈ 119 µM) for the first, 0.6 µg/mL (≈ 1.73 µM) for the second.

Going from `COc1cccc(NC(=O)N2C3CCCC2CC(NC(=O)C2CC2)C3)c1` (stereo not given) to `COc1cccc(NC(=O)C(c2ccccc2)N2CCCC2)c1` (stereo not given), the solubility kinetic rises from 44.4 µg/mL (≈ 124 µM) to greater than 46.6 µg/mL.

`CC(OC(=O)c1cccnc1Cl)C(=O)Nc1ccc2c(c1)OCO2` (stereo not given) and `CC(OC(=O)c1ccc(NC(N)=O)cc1)C(=O)Nc1ccc2c(c1)OCCO2` (stereo not given) cannot be ordered by solubility kinetic: greater than 52.3 µg/mL for the first, greater than 57.8 µg/mL for the second.

Going from `O=C(O)c1ccc(CSc2nc3ccccc3[nH]2)cc1` to `Cc1ccnc(NC(=O)Cc2ccc(-c3ccccc3)cc2)c1`, the solubility kinetic falls from 39.2 µg/mL (≈ 138 µM) to 4.3 µg/mL (≈ 14.2 µM) (9.1-fold).

Going from `COc1ccccc1C(=O)CN1C(=O)NC2(CCCc3ccccc32)C1=O` (stereo not given) to `O=C(CN1CCCc2ccccc21)N1CCc2ccccc21`, the solubility kinetic falls from 8.4 µg/mL (≈ 23.1 µM) to 4.8 µg/mL (≈ 16.4 µM) (1.8-fold).

`O=C(CCNC(=O)c1ccc([N+](=O)[O-])cc1)NCc1ccco1` and `CCC(CCC(=O)Nc1cccc([N+](=O)[O-])c1)C(=O)O` (stereo not given) cannot be ordered by solubility kinetic: greater than 47.6 µg/mL for the first, greater than 42 µg/mL for the second.

`CCC1CC(C(=O)Nc2ccccc2)C(=O)O1` (stereo not given) and `CCC(=O)N1c2ccccc2C(N(C(=O)CC)c2ccccc2)CC1C` (stereo not given) cannot be ordered by solubility kinetic: greater than 35 µg/mL for the first, greater than 52.6 µg/mL for the second.

`Cn1c(Cc2ccccc2)nnc1SCC(=O)NC1CCCC1` and `COc1ccccc1CNC(=O)COC(=O)C1CC1` cannot be ordered by solubility kinetic: greater than 49.6 µg/mL for the first, greater than 39.5 µg/mL for the second.

First: Cc1ccc(OCC(=O)N2CCN(C(=O)c3cccc(F)c3)CC2)cc1
Second: Cc1ccc(NC(=O)O/N=C/c2ccc(F)cc2)cc1
The solubility kinetic of the first is higher: greater than 53.5 µg/mL for the first, 23.1 µg/mL (≈ 84.8 µM) for the second.

Going from `Cc1[nH]c(=S)c(C#N)c(C)c1Cc1ccc(Cl)cc1Cl` to `Cc1cc(C)c2ccc3c(C)c(C)n(C)c3c2n1`, the solubility kinetic falls from 2.2 µg/mL (≈ 6.81 µM) to less than 0.3 µg/mL.

First: O=c1[nH]c2ccccc2c(O)c1-c1ccccc1
Second: O=C1Nc2ccccc2O/C1=C\c1ccccc1
The solubility kinetic of the first is 14-fold higher: 17.2 µg/mL (≈ 72.5 µM) for the first, 1.2 µg/mL (≈ 5.06 µM) for the second.

`O=C1C/C(=C\c2c(F)cccc2Cl)N2CCC1CC2` and `O=C1CCC(=O)N1CC(=O)N1CCCc2ccccc21` are within 1.5-fold of each other in solubility kinetic: 39.7 µg/mL (≈ 142 µM) for the first, 28.5 µg/mL (≈ 105 µM) for the second.

First: Nc1nc(Nc2cccc(Cl)c2)nc(NCCO)c1[N+](=O)[O-]
Second: CC(=O)Oc1cccc(Nc2ncnc3ccccc23)c1
The solubility kinetic of the first is lower: 6.5 µg/mL (≈ 20 µM) for the first, greater than 41.9 µg/mL for the second.

First: CCOC(=O)c1ccc(NC(=O)c2cc(F)c(F)cc2Cl)cc1
Second: O=C(COC(=O)c1ccc(F)cc1)NC1CC1
The solubility kinetic of the first is lower: less than 0.7 µg/mL for the first, greater than 35.6 µg/mL for the second.

Going from `Clc1cc(Cl)cc(CN2CCSCC2)c1` to `O=C1NCCN1CCNS(=O)(=O)c1ccccc1[N+](=O)[O-]`, the solubility kinetic rises from 4.5 µg/mL (≈ 17.2 µM) to greater than 47.1 µg/mL.

`O=C(Nc1cccc(S(=O)(=O)N2CCOCC2)c1)C12CC3CC(CC(C3)C1)C2` and `Cc1ccc(C23CC4CC(CC(C(=O)N(C)C)(C4)C2)C3)cc1` are within 1.5-fold of each other in solubility kinetic: 2.2 µg/mL (≈ 5.44 µM) for the first, 2.4 µg/mL (≈ 8.07 µM) for the second.

Going from `COn1c(-c2ccccc2)nc2ncccc21` to `COc1ccc(-c2nc3ccccn3c2Cl)cc1`, the solubility kinetic falls from greater than 33.8 µg/mL to 4.4 µg/mL (≈ 17 µM).

`O=C(NC(=O)c1ccccc1O)c1ccc2c(c1)CCO2` and `O=C(NC(=S)NNC(=O)c1cccs1)c1ccccc1` cannot be ordered by solubility kinetic: greater than 42.5 µg/mL for the first, greater than 45.8 µg/mL for the second.

First: CC1=C(C(N)=O)C(c2cccs2)NC(=S)N1 (stereo not given)
Second: Cc1ccccc1NC(=O)c1sc(NC(=O)C2CC2)nc1C
The solubility kinetic of the first is 7.2-fold higher: 34.7 µg/mL (≈ 137 µM) for the first, 4.8 µg/mL (≈ 15.2 µM) for the second.

Compared with `Cc1ccc(C(=O)NCC(=O)O)o1`, `CCCC(=O)N/C(N)=N/c1nc2ccccc2o1` is 2.1-fold lower in solubility kinetic: 25.1 µg/mL (≈ 137 µM) for the first, 11.9 µg/mL (≈ 48.3 µM) for the second.

First: Cc1cccc(N2N=C(C(=O)OCC(=O)c3ccccc3)CCC2=O)c1
Second: CC(=O)c1sc(NC(=O)c2ccccc2)nc1-c1ccccc1
The solubility kinetic of the first is higher: greater than 52.6 µg/mL for the first, less than 0.3 µg/mL for the second.

Going from `N#C/C(=C\c1ccc(F)cc1)C(=O)NC1CCS(=O)(=O)C1` (stereo not given) to `Nc1ccc(C(=O)OCC(=O)NC2CC2)cc1[N+](=O)[O-]`, the solubility kinetic rises from 33.8 µg/mL (≈ 110 µM) to greater than 41.9 µg/mL.

Going from `C#CCOc1ccc(/C=C2/C(=O)ON=C2C)cc1Br` to `CC(C)OCc1c(C(=O)Nc2nccs2)oc2ccccc12`, the solubility kinetic falls from 42.7 µg/mL (≈ 133 µM) to 2.6 µg/mL (≈ 8.22 µM) (16-fold).

First: O=C(O)/C=C/C(=O)NCC1CCC(CNC(=O)/C=C/C(=O)O)CC1 (stereo not given)
Second: COc1cccc(CNCc2ccccc2OC)c1.O=C(O)C(=O)O
The solubility kinetic of the first is higher: greater than 50.8 µg/mL for the first, 28.9 µg/mL for the second.

First: O=C1CCCc2nc3c(cc21)C(O)Oc1ccccc1-3 (stereo not given)
Second: COc1ccc(-n2c(O)c(C=NCc3ccc4c(c3)OCO4)c(=O)[nH]c2=O)cc1
The solubility kinetic of the first is 2.9-fold higher: 19.4 µg/mL (≈ 72.6 µM) for the first, 6.8 µg/mL (≈ 17.2 µM) for the second.

`CN(C)S(=O)(=O)c1cccc(NC(=O)NCCCl)c1` and `COc1ccc(CCNC(=O)COc2ccccc2[N+](=O)[O-])cc1OC` cannot be ordered by solubility kinetic: greater than 45.9 µg/mL for the first, greater than 54.1 µg/mL for the second.

`Cc1nc(SCC(=O)N2CCCCC2)c2c(C)c(C)sc2n1` and `O=S(=O)(Nc1ccc(Br)cn1)c1cccs1` are within 1.5-fold of each other in solubility kinetic: 33.7 µg/mL (≈ 100 µM) for the first, 42.4 µg/mL (≈ 133 µM) for the second.
